# Measured values: the METLIN SMRT retention time set (Domingo-Almenara et al. 2019)
# Assay: gradient 5% acetonitrile 3 min, to 50% in 2 min, to 85% in 15 min, held 3 min, 100 µL/min
# Conditions: column: Zorbax Extend-C18 2.1 x 50 mm; eluents: water / acetonitrile, 0.1% formic acid
# Summary of the method: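 The system's dead and dwell volumes were 40 μL and 900 μL, with a Zorbax Extend-C18 column (2.1 × 50 mm, 1.8 μm) run at 100 μL/min in water and acetonitrile containing 0.1% formic acid each. Pure standards were analyzed in mixtures of ~100 molecules by HPLC–quadrupole time-of-flight mass spectrometry in positive and negative ionization mode. Retention time was assigned from computationally picked, manually inspected adduct peaks.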
row,Compound,RP-LC retention time [s]
1,CCOCCCNC(=O)C1CCCN(C(=O)c2cc(C)cc(C)c2)C1 (stereo unspecified),743
2,COc1ccc(S(=O)(=O)N2CCC(c3cnn(-c4cccc(C)c4)c3)CC2)cc1,1130
3,COc1ccc(-c2c(C)noc2NC(C)=O)cc1S(=O)(=O)Nc1cccc(C(F)(F)F)c1,821
4,O=C(Cn1cccc1-c1nnc(C2CCC2)o1)Nc1cccc(Br)c1,974
5,CC(C)NC(=O)N1CCOc2ccc(CCC(=O)O)cc2C1,671
6,CCCS(=O)(=O)N1CCC2(CC1)CC(N1CCN(c3ccccc3)CC1)CCO2 (stereo unspecified),538
7,CCN(CC)C(=O)c1ccc(O)c(OC)c1,718
8,Cc1nccn1C1CN(C(=O)Nc2ccccc2)C1,568
9,Cc1nn(-c2nc(CC(=O)N3CCCCC3)cs2)c(C)c1Cl,1050
10,O=C(Nc1ccc2c(c1)OCO2)Nc1cccn2c(C3CCC3)nnc12,801
11,CNC(=O)C1CCN(C(=O)Nc2ccc(NC(=O)Nc3ccc(C)c(C)c3)cc2)CC1,700
12,Cc1cccc(NC(=O)C2(C)CCCCC(=O)N2)c1 (stereo unspecified),695
13,O=C(NC1CCN(c2cc(-c3ccc(Cl)cc3)[nH]n2)C1)c1ccc(F)c(F)c1 (stereo unspecified),839
14,COc1ccc(-c2coc3cc(OC(=O)c4ccc5c(c4)OCO5)ccc3c2=O)cc1OC,981
15,CCc1nccn1Cc1nc(-c2cccc(Cl)c2)no1,667
16,CN(C)S(=O)(=O)c1ccc(-n2cnc(C(=O)N3CCN(Cc4ccccc4)CC3)c2)cc1,626
17,COc1ccc(OC)c(NC(=O)N2CCCC(C)(C(=O)NCc3ccccc3C)C2)c1 (stereo unspecified),912
18,CC(C)n1c(N2CCN(C(=O)CCc3nc4ccccc4[nH]3)CC2)cc(=O)n(C(C)C)c1=O,648
19,COc1ccc(OC)c(COCC(O)CN2CCN(Cc3ccccc3)CC2)c1 (stereo unspecified),557
20,Clc1cccc(CN2CCCN(c3ncccc3-c3nc(C4CC4)no3)CC2)c1,723
21,O=C(CN1C(=O)NC2(CCCCC2)C1=O)Nc1ccccc1Cl,764

row,Compound,RP-LC retention time [s]
1,CC1CCN(S(=O)(=O)c2ccc(-c3nnc(C(=O)NC4CCCCCC4)o3)cc2)CC1,1170
2,CCCNC(=O)C1CCCN(c2ccc(SCC(=O)Nc3ccccc3C(=O)OCC)nn2)C1 (stereo unspecified),750
3,CCN1C(=O)c2cc(S(=O)(=O)Nc3cc(F)ccc3C)ccc2Oc2cccnc21,1030
4,O=C(CCn1cnc2cc(-c3noc(-c4cccc(Cl)c4)n3)ccc21)N1CCOCC1,754
5,CCc1cccc(N2C(=O)CN(S(=O)(=O)CC)CC2(C)C(=O)NCc2ccccc2)c1 (stereo unspecified),856
6,O=C(NCc1ccc(F)cc1F)c1c(O)c2cccnc2n(Cc2ccccc2)c1=O,1400
7,CCCCN1C(=O)C(NC(=O)c2ccccc2OC)(C(F)(F)F)C(C(C)=O)=C1C (stereo unspecified),976
8,COc1c(C(=O)NCCN2CCCCC2C)sc2ccc(Cl)cc12 (stereo unspecified),716
9,Cc1nc2cc(N3CCC(C(=O)NCc4ccc5c(c4)OCO5)CC3)cnc2nc1C,699
10,O=C(Cc1nnc(-c2cnccn2)o1)NCc1ccccc1,635
11,CCNC(=O)NC1CCN(c2ccc(C)cc2)C1=O (stereo unspecified),671
12,CC(C)(C)NC(=O)N1CCC2(CC1)CC(Cc1nc(-c3cnccn3)no1)CCO2 (stereo unspecified),720
13,CCNC(=O)C1CCN(c2nc3ccc(-c4ccccc4)nc3s2)CC1,835
14,COC(=O)C(Cc1ccccc1)NC(=O)C(NC(=O)OCc1ccccc1)C(C)C (stereo unspecified),894
15,O=C(c1ccsc1)N1CCN(c2ccccn2)CC1,521
16,O=c1c2nc(-c3ccc(F)cc3F)cn2ccn1-c1ccc(Cl)cc1,921
17,CSc1cccc(NC(=O)C2CCN(c3cnc4nc(C)c(C)nc4c3)CC2)c1,758
18,O=C1CCc2cc(S(=O)(=O)Nc3ccc(F)c(Cl)c3)cc3c2N1CCC3,812
19,COCCO[C@H]1C(=O)N(C2CCN(S(=O)(=O)c3cccnc3)CC2)[C@H]1c1ccncc1,583
20,Fc1ccc(Nc2c(-c3ccccc3)nc3ccccn23)cc1,689
21,CSc1ncccc1C(=O)NCC(O)c1ccsc1 (stereo unspecified),626

# The remaining lines, values ahead:
row,RP-LC retention time [s],Compound
1,951,COc1cc(OC)cc(-c2noc(CCn3nc(-c4ccccc4)ccc3=O)n2)c1
2,885,CCc1ccc(CNC(=O)Cn2c(C)nc3onc(CC)c3c2=O)cc1
3,658,CCOc1ccc(C(=O)N2C[C@@H]3C[C@H]2C[C@@H]3NS(C)(=O)=O)cc1
4,996,COc1cc(NC(=O)Cn2cnc3c(sc4nc(-c5ccccc5)ccc43)c2=O)cc(OC)c1
5,774,COC(=O)c1cc2c(=O)n(CCc3c[nH]c4ccc(OC)cc34)ccc2nc1C
6,814,Cc1ccc(NC(=O)N2CCC3(C2)C(=O)N(C)c2ccccc23)cc1 (stereo unspecified)
7,1340,CCOc1ccc(-c2csc(Cc3nc(-c4cccc(Cl)c4)no3)n2)cc1
8,644,O=C(Cn1cnc2nc(N3CCCC(C(=O)NC4CC4)C3)sc2c1=O)NCc1cccs1 (stereo unspecified)
9,730,COCCNC(=O)C1(c2ccc(NC(=O)c3cccs3)cc2)CC1
10,817,CCN(C(=O)CN1C(=O)NC(c2ccc(C)cc2)C2=C1COC2=O)c1cccc(C)c1 (stereo unspecified)
11,970,CCOc1cc(=O)n2c(c1C(=O)OCc1ccc(Cl)cc1)CCCC2
12,570,COc1ccc(NC(=O)N2CCCN(C3CCN(Cc4ccc(F)cc4)C3=O)CC2)cc1 (stereo unspecified)
13,831,COc1ccc(CNC(=O)Cn2ccc3ccc(N4CCOCC4)nc32)cc1
14,892,CCOc1ccc(CNC(=O)COc2nc(C)nc3oc(C)c(C)c23)cc1
15,649,CCn1c(=O)c(Nc2ccc(C)c(Cl)c2)nc2ccncc21
16,749,COc1ccc(C(=O)N(Cc2cc(OC)c(OC)c(OC)c2)C2CCS(=O)(=O)C2)cc1 (stereo unspecified)
17,851,COc1ccc(-c2cc(C(F)(F)F)n3nc(C(=O)O)cc3n2)cc1
18,856,Cc1ccc(Cl)cc1NC(=O)Cn1nc(N2CCOCC2)c2ccccc2c1=O
19,1220,CCc1ccc(-n2nc(C)c3c(C(F)(F)F)cc(OCC(=O)N4CCCC4)nc32)cc1
20,1020,COc1ccc(-n2ccnc(NC(=O)Nc3ccc(F)c(Cl)c3)c2=O)cc1
21,654,Cc1ccn2cc(-c3ccc(NC(=O)Nc4ccc(F)cc4)cc3)nc2n1
22,797,CCOc1nc2ccccc2nc1N1CCCC(C(=O)Nc2ccc(F)c(Cl)c2)C1 (stereo unspecified)
23,692,CCOc1ccc(NC(=O)Cn2nc3c4sc(N(C)C)nc4ncn3c2=O)cc1
24,675,COc1cccc(COc2cn(C)c(C(=O)Nc3ccc4c(c3)OCCO4)cc2=O)c1
